Test results taken from US6500433B1, “Polypeptide fragments capable of competition with Streptococcus mutans antigen I/II” (The Council of Governors of the United Medical & Dental …, priority 1995, dated 2002).

Legend:
[1] = test system: receptors in whole saliva; assay: BIAcore inhibition of binding of immobilised SA I/II to receptors in whole saliva; parameters: species or system human; details: 6 μM inhibitor in fluid phase saliva; 5 mM calcium
Method: (§1) Purified SA I/II or salivary receptor was immobilised on the sensor chip surface at a concentration of 100 μg/ml in 10 mM Na formate pH 3.5 using the amine coupling kit (Pharmacia Biosensor).
Binding of immobilised SA I/II to receptors in whole saliva was determined in the absence and presence of inhibitors (at varying concentrations). Inhibition by alanine-substituted peptides was analysed at a peptide concentration of 50 μM. The running buffer was HEPES buffered saline (HBS) and the surface was regenerated with 100 mM HCl.

[2] = test system: human serum IgG antibodies; assay: ELISA for serum antibodies; type: binding; details: sera from 22 individuals
Method: ELISA for serum antibodies. Antibody recognition of synthetic peptides was determined by ELISA. Peptides (10 μg/ml) in phosphate buffered saline (PBS) were adsorbed to wells of polystyrene microtitre plates (Dynatech) for 2h at room temperature. Plates were washed and wells were treated with 1.5% (w/v) bovine serum albumen (BSA) for 1 h at room temperature to block unbound sites. After washing, bound peptides were incubated with serially diluted sera in duplicate. Bound IgG antibodies were determined by incubation with alkaline phosphate conjugated-goat anti-human Ig (Sigma Chemical Co.) and subsequent reaction with paranitrophenyl phosphate (Sigma Chemical Co.). Plates were read at 405 nm using the microplate reader model 450 (Bio-Rad). After initial screening, the assay was repeated at least 3 times with each serum using a restricted set of peptides. SA I/II (2 μg/ml) was included in each assay as was an irrelevant peptide ([…](SEQ. ID. No. 27) derived from the sequence of SIV p27. Results are expressed as the highest dilution giving an absorbance ≧0.2.

[3] = test system: draining lymph node cells; assay: Proliferation of lymph node cells of mice immunised with recombinant 975-1044; type: cell-based; details: all mouse strains
Method: i) Groups of mice (3-4 per group) were immunised with 975-1044 (SEQ. ID. No. 8) by two routes:
(§2) a) intraperitoneally with 50 μg polypeptide in incomplete Freund's adjuvant with a boost after 4 weeks (also 50 μg in incomplete Freund's adjuvant and intraperitoneally).
b) subcutaneously. A single immunisation with 50 μg polypeptide in incomplete Freund's adjuvant.
ii) Draining lymph nodes were removed 10 to 14 days after immunisation, pooled and homogenised to give a single cell suspension in RPMI 1640 culture medium supplemented with 2 mM glutamine, 1 mM pyruvate, […] 2-mercaptoethanol, 100 u/ml penicillin, 100 μg/ml streptomycin, 100 mM HEPES and 5% foetal calf serum. Cells (2×10^5/well) were cultured with antigen and proliferation was measured by incorporation of [^3H]-thymidine as described above. Antigens were SA I/II recombinant polypeptides, peptides spanning residues 975-1044 and a control protein fraction from E. coli harbouring non-recombinant plasmid.

human sera = assay: Western blotting of serum antibody responses; type: binding; details: panel a
Method: Western blotting. Serum antibody responses were also assayed by Western blotting using SA I/II, the recombinant polypeptides and a control fraction from E. coli BL21 harbouring non-recombinant pET15b. Purified antigens were separated by sodium dodecyl sulphate-polyacrylamide gel electrophoresis (SDS-PAGE) with gels of 10% acrylamide, by using a mini-gel system (Hoeffer Scientific Instruments, San Francisco, Co, USA). Proteins were transferred to nitrocellulose with a semi-dry blotter (Sartorius A. G., Gottingen, Germany). Nitrocellulose strips were blocked with 5% (wt/vol) nonfat milk powder 2.5% (wt/vol) BSA in Tris-HCl-buffered saline (pH 8.0) containing 0.05% (wt/vol) Tween 20. Strips were subsequently incubated with human sera (1 in 20 dilution) or rabbit anti-SA I/II antiserum (10^−4 dilution) and bound antibody was visualised by using alkaline phosphatase-conjugated secondary antibody with 5-bromo-4-chloro-3-indolylphosphate and nitroblue tetrazolium (Sigma Chemical Co.) as substrates. Each sera was assayed three times and responses were considered as positive if bands were visible in at least two assays.

[4] = test system: Sera from mice immunised intraperitoneally with polypeptide 975-1044; assay: Antibody recognition by sera of mice immunised with polypeptide 975-1044; type: binding
Method: as §2
Sera from mice immunised intraperitoneally with polypeptide 975-1044 recognised intact cells of S.mutans, intact SA I/II and recombinant 975-1044. Peptides 995-1014 and 1025-1044 were also recognised.

[5] = target: purified salivary receptor; assay: BIAcore direct binding to immobilised purified salivary receptor; parameters: species or system human; details: dissociation rate constant
Method: SA I/II and recombinant polypeptides were prepared as described above. Salivary receptor was prepared by absorption of whole saliva with intact cells of S. mutans (Lee et al (1989) Infect. Immun. 57:3306-3313). The cells were washed with KPBS (2.7 mM KCl, 137 mM NaCl in 1.5 mM KH2PO4, 6.5 mM Na2HPO4, pH 7.2)and adsorbed material was eluted with 1 mM EDTA in KPBS. Analysis of the purified material by polyacrylamide gel electrophoresis in the presence of Na dodecyl sulphate indicated the presence of components of Mr>200,000 and approximately 40,000. Peptides were prepared by the simultaneous multiple peptide synthesis procedure (Houghten (1985) Proc. Natl. Acad. Sci. USA 82: 5131-5135) as above. In addition, a series of peptides was synthesised corresponding to residues 1025-1044 in which each residue in turn was substituted by alanine.
as §1
Purified salivary receptor was immobilised on the sensor chip and binding of SA I/II or purified recombinant polypeptide fragments was determined.

[6] = test system: lymphoproliferative response to SA I/II; assay: MHC dependency of proliferative responses to SA I/II (inhibition by MAbs); type: cell-based, human; details: antigen 10 μg/ml
Method: MHC dependency of proliferative responses to SA I/II was determined by culturing cells with antigen (10 μg/ml) as above in the presence of MAbs L235, W6/32 or ID4 at 1, 10 and 20 μg/ml. Cultures were incubated with [3H]-thymidine, harvested and [^3H]-thymidine uptake was determined as described above.

**Q.** What does the source list for “SA I/II: S. mutans I/II antigen, a cell surface protein with an Mr of about 185 kDa, purified from S. mutans Guy's strain”?
**A.** inhibition of binding [1]: approximately 90%; serum antibody recognition / B cell epitope [2]: recognised by all subjects; mean log2 titre ([2]; highest dilution giving absorbance ≧0.2): 7.6±1.2 log2 titre; proliferative response (positive: stimulation index ≧3.0, cpm>500) [3]: responded; recognition in Western blot (human sera): recognised strongly; Antibody recognition, log2 titres ([4]; strain BALB/C): 2.8 log2 titres (1 = 1:50); Antibody recognition, log2 titres ([4]; strain DBA/1): 2.7 log2 titres (1 = 1:50); Antibody recognition, log2 titres ([4]; strain SJL): 4.0 log2 titres (1 = 1:50); kd [5]: 0.02 s⁻¹; SI of response to SA I/II without MAb [6]: 10.0±3.2
